# Data from US11591363B2, “Crystalline forms of beta-sitosterol” (CENTER FOR I[…] IN CRYSTAL ENGINEERING, S.L., priority 2017, dated 2023).
# Where two headings read alike, the source gives them in different places.
# Experiments:
# [1] = tested on: Plasma cholesterol levels; test: Activity test: plasma cholesterol after oral load of lard; type: in vivo, Golden Syrian male Hamsters; conditions: measured at 5 h (T5) vs T0, oral load of lard 2.5 g/kg BW supplemented with 0.513 g/kg BW
# [2] = tested on: Plasma triglyceride levels; test: Activity test: plasma triglycerides after oral load of lard; type: in vivo, Golden Syrian male Hamsters; conditions: for reduction of the plasmatic triglyceride concentration: T5 (5 h) vs T0
# [3] = tested on: circulating β-sitosterol levels; test: Activity test: sitosterolemia (plasma beta-sitosterol, GC-FID) after oral load of lard; type: in vivo, Golden Syrian male Hamsters; conditions: for decrease in circulating levels of β-sitosterol: 5 h post-treatment (T5) with respect to T0 value, oral load of lard 2.5 g/kg BW supplemented with 0.513 g/kg BW
# [4] = Solubility test, shake-flask in FaSSIF-V2; type: physicochemical; conditions: for solubility at 24 h: thermodynamic from solid, read-out: Log S (logarithm of S in mol/L) (converted); for solubility, comparison between tested samples: FaSSIF-V2, pH 6.5, 25° C.
# Experimental: This test is focused on evaluating the solubility in Fasted State Simulated Intestinal Fluid (FaSSIF-V2).
# 5.1. Samples • Comparative sample A (reference): Standard sample of beta-Sitosterol from the Ph. Eu. Reference Standard, ref. (Y0001615) • Sample A: hydrate crystal of beta-sitosterol having 1.25 molecules of water of the present invention • Sample B: cocrystal of beta-sitosterol and gallic acid Form 5 of the present invention
# Solubility is determined in FaSSIF-V2 media, prepared as stated by Biorelevant.com using maleic acid buffer (pH=6.5).
# All experiments are done under temperature control at 25±1° C. The weight of tested samples expressed in mg, and FaSSIF final volume expressed in mL are as defined in Table below:
# Shaking time: 24 h in a rotational stirrer. After 4-5 h of shaking, pH is measured and readjusted to the initial value (6.5) in case it is needed. • Equilibration time: 24 h • Final pH measurement • Phase separation: filtration through a hydrophilic filter (PTFE membrane, 0.45 μm porous size, 4 mm diameter, Millex-LH, Millipore). Before the filtration, the filter was conditioned with sample solution for 1 h. After that time, filtration started rejecting the first drops of sample. • Solid form characterization: solid obtained after filtration is analysed by XRPD to know the exact solid form obtained after the shake-flask procedure. In case of cocrystals, XRPD analysis confirms that experiments are done under eutectic point conditions. • Liquid phase is used for API and coformer quantification.
# 5.3.2. HPLC Quantification • Instrument: Shimadzu HPLC, with diode array detector (SPD-M10AVPI), two pumps (LC-10ADVP), autoinjector (SIL-10ADVP) and column oven (CTO-10ASVP). • Column:
# For comparative sample A and sample A quantification: Phenomenex Kinetex C18, 100×4.6 mm, 2.6 μm. For sample B quantification: Phenomenex Luna C18, 150×4.6 mm, 5 μm. • Conditions:
# For comparative sample A and sample A quantification: Mobile phase composed of 80% Methanol-20% Acetonitrile. Isocratic conditions. Flow: 0.8 mL/min. Injection volume: 20 μL.
# For sample B quantification: Mobile phase composed of 20 mM formic acid at pH=3 (A) and methanol (B). Gradient conditions: 0-3 min, 5% B; 8 min, 10% B; 15 min, 100% B; 17 min, 5% B; 25 min, 5% B. Flow: 1 mL/min. Injection volume: 10 μL.
# Quantification wavelength: 210 nm for comparative sample A and 280 nm for sample A.
# The amounts of comparative sample A, sample A and sample B in the filtered solutions coming from Shake-Flask (SF) experiments have been quantified according to the described methodology.
# Solubility of the samples A and B has been calculated through the equilibrium concentrations in the eutectic point as described in “S. J. Bethune, N. Huang, A. Jayasankar, N. Rodriguez-Hornedo, Crystal Growth and Design 9, 2009, 3976-3988”, taking into account the stoichiometry of each sample.
# [5] = Particle size test by laser diffraction; type: physicochemical
# Text: This test provides the particle size of the co-crystals of the present invention in comparison with the comparaitive Standard sample of beta-Sitosterol from the Ph. Eu. Reference Standard, ref. (Y0001615)
# 7.1. Tested Samples • Comparative sample A: comparaitive Standard sample of beta-Sitosterol from the Ph. Eu. Reference Standard, ref. (Y0001615) • Sample A: hydrate crystal of beta-sitosterol having 1.25 molecules of water of the present invention • Sample B: cocrystal of beta-sitosterol and gallic acid Form 5 of the present invention • Sample C: cocrystal of beta-sitosterol and propionic acid Form 2 of the present invention
# The particle size was performed by laser diffraction. For this purpose, a Beckman-Coulter model. LS13320 laser diffractometer (Fullerton, Calif., USA) was equipped with a Micro. Liquid Module (MLM) wet dispersion modul, an an optic model (Fraunhofer. Rdf, PIDS). The measurement range is 0.4-2000 μm.
# [6] = Bioavailability assessment: plasma beta-sitosterol after 21 days high-fat diet
# [7] = FaSSIF-V2, pH 6.5, 25±1° C., shake-flask 24 h, value (SD)
molecule,measurement,setting,value
cocrystal of beta-sitosterol and benzyl alcohol [cocrystal Form 4],decrease of plasmatic cholesterol levels,[1],31%
same,reduction of the plasmatic triglyceride concentration,[2]; oral load of lard 2.5 g/kg BW supplemented with 0.513 g/kg BW,7%
same,decrease in circulating levels of β-sitosterol,[3],12%
"CC[C@H](CC[C@@H](C)[C@H]1CC[C@H]2[C@@H]3CC=C4C[C@@H](O)CC[C@]4(C)[C@H]3CC[C@]12C)C(C)C [comparative sample B, beta-sitosterol]",decrease of plasmatic cholesterol levels,[1],25%
same,increase in triglyceridemia at 5 h (T5),"[2]; T5 vs T0, oral load of lard 2.5 g/kg BW supplemented with 0.513 g/kg BW",39%
same,decrease in circulating levels of β-sitosterol,[3],23%
same,"percentage of variation on β-sitosterol plasma levels T5 vs T0, comparison with control (FIG. 16)","[3]; 5 h post-treatment, 0.513 g/kg BW",decrease in comparison with control (group A)
"CC[C@H](CC[C@@H](C)[C@H]1CC[C@H]2[C@@H]3CC=C4C[C@@H](O)CC[C@]4(C)[C@H]3CC[C@]12C)C(C)C [hydrate crystal form of beta-sitosterol, beta-sitosterol]",decrease of plasmatic cholesterol levels,[1]; listed as test sample D,29%
same,reduction of the plasmatic triglyceride concentration,"[2]; oral load of lard 2.5 g/kg BW supplemented with 0.513 g/kg BW, listed as test sample D",2%
same,decrease in circulating levels of β-sitosterol,[3]; listed as test sample D,34%
same,solubility at 24 h,"[4]; 25 °C, FaSSIF-V2, pH 6.5, 25±1° C., calculated through the equilibrium concentrations in the eutectic point, taking into account stoichiometry",5.01 µM
same,"solubility, comparison between tested samples",[4],more soluble than the commercially available beta-sitosterol
same,[API] concentration of beta-sitosterol in the solutions coming from SF experiments,"[4]; FaSSIF-V2, pH 6.5, 25±1° C., shake-flask 24 h, value (SD), listed as Sample A",2.5 (1) mg/mL
same,D10,[5]; listed as Sample A,4.145 μm
same,D50,[5]; listed as Sample A,16.39 μm
same,D90,[5]; listed as Sample A,34.63 μm
same,"D(3, 2) surface weighted mean diameter",[5]; listed as Sample A,8.558 μm
same,Mean particle size,[5]; listed as Sample A,18.12 μm
"CC[C@H](CC[C@@H](C)[C@H]1CC[C@H]2[C@@H]3CC=C4C[C@@H](O)CC[C@]4(C)[C@H]3CC[C@]12C)C(C)C [cocrystal Form 2, cocrystal of beta-sitosterol and propionic acid]",decrease of plasmatic cholesterol levels,[1]; listed as Test sample C,21%
same,"plasma triglyceride concentrations at T5, comparison between groups (FIG. 15)","[2]; 5 h post-oral fat load, 0.513 g/kg BW",lower levels at T5 in comparison with both Compound A and compound B
same,reduction of the plasmatic triglyceride concentration,"[2]; oral load of lard 2.5 g/kg BW supplemented with 0.513 g/kg BW, listed as test sample C",20%
same,decrease in circulating levels of β-sitosterol,[3]; listed as test sample C,14%
same,D10,[5]; listed as Sample C,6.671 μm
same,D50,[5]; listed as Sample C,28.01 μm
same,D90,[5]; listed as Sample C,47.60 μm
same,"D(3, 2) surface weighted mean diameter",[5]; listed as Sample C,13.19 μm
same,Mean particle size,[5]; listed as Sample C,27.77 μm
same,Fold-change (FC) of increase of circulating beta-sitosterol with respect to controls (comparative group A),"[6]; 0.264 g beta-sitosterol/kg BW, control set to 1, listed as test sample C",6.4
same,FC increment of circulating beta-sitosterol in relation to reference sample B1 value,[6]; same dose 0.264 g beta-sitosterol/kg BW,2.7
"CC[C@H](CC[C@@H](C)[C@H]1CC[C@H]2[C@@H]3CC=C4C[C@@H](O)CC[C@]4(C)[C@H]3CC[C@]12C)C(C)C [reference sample B2, beta-sitosterol]",Fold-change (FC) of increase of circulating beta-sitosterol with respect to controls (comparative group A),"[6]; 0.528 g/kg BW, control set to 1",5.3
"CC[C@H](CC[C@@H](C)[C@H]1CC[C@H]2[C@@H]3CC=C4C[C@@H](O)CC[C@]4(C)[C@H]3CC[C@]12C)C(C)C [Comparative sample A, beta-sitosterol]",solubility at 24 h,"[4]; FaSSIF-V2, 25 °C, pH 6.5, fassif, FaSSIF-V2, pH 6.5, 25±1° C., shake-flask 24 h, value (SD)",0.851 µM
same,[API] concentration of beta-sitosterol in the solutions coming from SF experiments,[4]; [7],0.36 (0.06) mg/mL
same,D10,[5],44.62 μm
same,D50,[5],108.0 μm
same,D90,[5],178.8 μm
same,"D(3, 2) surface weighted mean diameter",[5],30.19 μm
same,Mean particle size,[5],109.9 μm
cocrystal of beta-sitosterol and gallic acid [cocrystal Form 5],"solubility, comparison between tested samples",[4],more soluble than the remaining tested samples
same,[API] concentration of beta-sitosterol in the solutions coming from SF experiments,[4]; [7],3.0 (1.5) mg/mL
same,Log S (logarithm of S in mol/L),"[4]; FaSSIF-V2, pH 6.5, 25±1° C., calculated through the equilibrium concentrations in the eutectic point, taking into account stoichiometry",−4.7 (0.1) mol/L
same,D10,[5],3.102 μm
same,D50,[5],10.24 μm
same,D90,[5],23.21 μm
same,"D(3, 2) surface weighted mean diameter",[5],6.009 μm
same,Mean particle size,[5],12.05 μm
same,Fold-change (FC) of increase of circulating beta-sitosterol with respect to controls (comparative group A),"[6]; equivalent to 0.158 g of beta-sitosterol/kg BW, control set to 1",4.7
same,Fold-change (FC) of increase of circulating beta-sitosterol with respect to controls (comparative group A),"[6]; equivalent to 0.330 g of beta-sitosterol/kg BW, control set to 1",7.9
"CC[C@H](CC[C@@H](C)[C@H]1CC[C@H]2[C@@H]3CC=C4C[C@@H](O)CC[C@]4(C)[C@H]3CC[C@]12C)C(C)C [reference sample B1, beta-sitosterol]",Fold-change (FC) of increase of circulating beta-sitosterol with respect to controls (comparative group A),"[6]; 0.264 g beta-sitosterol/kg BW, control set to 1",2.4
